This note sets out measurements from ChEMBL document CHEMBL1123664, “Preparation and antitumor activity of new mitomycin A analogues” (J Med Chem, 1987).

Data set [1] relates to P388. Nature of the data set: Antitumor activity against intraperitoneally implanted P388 leukemia cells in mice expressed as ratio of median survival time for treated group to that of control group at an optimal dose of 3.2 mg/kg. The class given is functional, Mus musculus. The conditions noted are these: route intraperitoneal.
Data set [2] is described as follows: Partition coefficient (logP). The class given is physicochemical. The note with it: octanol/water.
The subject of data set [3] is P388. Kind of data set: Antitumor activity against intraperitoneally implanted P388 leukemia cells in mice expressed as ratio of median survival time for treated group to that of control group at an optimal dose of 1.6 mg/kg. Type of data set: functional, Mus musculus. The conditions noted are these: route intraperitoneal.
The subject of data set [4] is P388. Kind of data set: Antitumor activity against intraperitoneally implanted P388 leukemia cells in mice at an optimal dose of 1.6 mg/kg expressed as […] effective dose. The conditions noted are these: Mus musculus, P388, ip, route intraperitoneal, read-out: MED. The class given is functional.
Data set [5] concerns B16. Nature of the data set: Antitumor activity against subcutaneously B16 melanoma cells in mice at an optimal dose of 1.6 mg/kg expressed as […] effective dose. The conditions noted are these: Mus musculus, B16, sc, route subcutaneous, read-out: MED. The class given is functional.
Data set [6] concerns B16. Kind of data set: Antitumor activity against subcutaneously B16 melanoma cells in mice expressed as ratio of median survival time for treated group to that of control group at an optimal dose of 1.6 mg/kg. The conditions noted are these: route subcutaneous. Type of data set: functional, Mus musculus.
Data set [7] deals with B16. Kind of data set: Antitumor activity against subcutaneously B16 melanoma cells in mice expressed as ratio of median survival time for treated group to that of control group at an optimal dose of 1.2 mg/kg. Type of data set: functional, Mus musculus. The note with it: route subcutaneous.
For data set [8], the system named is P388. Kind of data set: Antitumor activity against intraperitoneally implanted P388 leukemia cells in mice expressed as ratio of median survival time for treated group to that of control group at an optimal dose of 0.4 mg/kg. Type of data set: functional, Mus musculus. The conditions noted are these: route intraperitoneal.
The subject of data set [9] is B16. Nature of the data set: Antitumor activity against subcutaneously B16 melanoma cells in mice at an optimal dose of 1.2 mg/kg expressed as […] effective dose. The note with it: Mus musculus, B16, sc, route subcutaneous, read-out: MED. The class given is functional.
Data set [10] deals with P388. Nature of the data set: Antitumor activity against intraperitoneally implanted P388 leukemia cells in mice at an optimal dose of 3.2 mg/kg expressed as […] effective dose. The class given is functional. The note with it: Mus musculus, P388, ip, route intraperitoneal, read-out: MED.
For data set [11], the system named is B16. Kind of data set: Antitumor activity against subcutaneously B16 melanoma cells in mice expressed as ratio of median survival time for treated group to that of control group at an optimal dose of 0.8 mg/kg. Type of data set: functional, Mus musculus. The conditions noted are these: route subcutaneous.
Data set [12] deals with P388. Nature of the data set: Antitumor activity against intraperitoneally implanted P388 leukemia cells in mice at an optimal dose of 0.8 mg/kg expressed as […] effective dose. The class given is functional. The note with it: Mus musculus, P388, ip, route intraperitoneal, read-out: MED.
Data set [13] has as its system P388. Nature of the data set: Antitumor activity against intraperitoneally implanted P388 leukemia cells in mice expressed as ratio of median survival time for treated group to that of control group at an optimal dose of 0.8 mg/kg. The class given is functional, Mus musculus. The note with it: route intraperitoneal.
The test system of data set [14] is B16. Nature of the data set: Antitumor activity against subcutaneously B16 melanoma cells in mice expressed as ratio of median survival time for treated group to that of control group at an optimal dose of 0.4 mg/kg. The class given is functional, Mus musculus. The conditions noted are these: route subcutaneous.
Data set [15] concerns B16. Nature of the data set: Antitumor activity against subcutaneously B16 melanoma cells in mice at an optimal dose of 0.8 mg/kg expressed as […] effective dose. The class given is functional, Mus musculus. The note with it: route subcutaneous; for minimal effective dose at 0.8 mg/kg: Mus musculus, B16, sc, read-out: MED.
In data set [16] the test system is B16. Nature of the data set: Antitumor activity against subcutaneously B16 melanoma cells in mice at an optimal dose of 0.6 mg/kg expressed as […] effective dose. Type of data set: functional, Mus musculus. The note with it: route subcutaneous.
Data set [17] relates to B16. Kind of data set: (§1) Antitumor activity against subcutaneously B16 melanoma cells in mice expressed as ratio of median survival time for treated group to that of control group at an optimal dose of 0.6 mg/kg. Type of data set: functional, Mus musculus. The note with it: route subcutaneous.
In data set [18] the test system is B16. Nature of the data set: (§2) Antitumor activity against subcutaneously B16 melanoma cells in mice expressed as ratio of median survival time for treated group to that of control group at an optimal dose of 1-3 mg/kg. Type of data set: functional, Mus musculus.
The subject of data set [19] is B16. Described as §1. Type of data set: functional, Mus musculus. The conditions noted are these: route subcutaneous. This is another data set of the same source.
The test system of data set [20] is P388. Kind of data set: Antitumor activity against intraperitoneally implanted P388 leukemia cells in mice at an optimal dose of 0.8 mg/kg gexpressed as […] effective dose. Type of data set: functional. The conditions noted are these: Mus musculus, P388, ip, route intraperitoneal, read-out: MED.
Data set [21] concerns B16. Kind of data set: Antitumor activity against subcutaneously B16 melanoma cells in mice at an optimal dose of 0.2 mg/kg expressed as […] effective dose. Type of data set: functional. The note with it: Mus musculus, B16, sc, route subcutaneous, read-out: MED.
The test system of data set [22] is B16. Kind of data set: Antitumor activity against subcutaneously B16 melanoma cells in mice expressed as ratio of median survival time for treated group to that of control group at an optimal dose of 0.2 mg/kg. Type of data set: functional, Mus musculus. The note with it: route subcutaneous.
Data set [23] deals with B16. Kind of data set: Antitumor activity against subcutaneously B16 melanoma cells in mice at an optimal dose of 0.4 mg/kg expressed as […] effective dose. The class given is functional. The conditions noted are these: Mus musculus, B16, sc, route subcutaneous, read-out: MED.
In data set [24] the test system is B16. The description is as §2. The class given is functional, Mus musculus. The source holds these as a separate data set.
Data set [25] has as its system B16. Kind of data set: Antitumor activity against subcutaneously B16 melanoma cells in mice at an optimal dose of 0.3 mg/kg expressed as […] effective dose. The class given is functional. The note with it: Mus musculus, B16, sc, route subcutaneous, read-out: MED.
Data set [26] deals with B16. Nature of the data set: Antitumor activity against subcutaneously B16 melanoma cells in mice expressed as ratio of median survival time for treated group to that of control group at an optimal dose of 0.3 mg/kg. The conditions noted are these: route subcutaneous. Type of data set: functional, Mus musculus.

Several values for one entry are separate records, joined by “and”; a condition that tells them apart may be missing. Identical values can stand only once. Some results are limits rather than exact numbers.

As usually defined, the T/C is the ratio of treated to control. One may read the logP as a log measure of how a compound divides between an organic and an aqueous phase. `CO[C@@]12C(COC(N)=O)C3=C(C(=O)C(C)=C(OC(C)C)C3=O)N1CC1NC12` (some centres not stated): the T/C in the data set on P388 [1] amounted to 174%. This compound showed a logP in data set [2] of 1.26.
On to `C=CCOC1=C(C)C(=O)C2=C(C1=O)C(COC(N)=O)[C@@]1(OC)C3NC3CN21` (some centres not stated), for which the T/C in the data set with P388 [3] was 156%. The minimal effective dose at 1.6 mg/kg in the data set on P388 [4] was 0.1 mg/kg. In [2], this compound showed a logP of 0.87.
In the case of `COC(COC1=C(C)C(=O)C2=C(C1=O)C(COC(N)=O)[C@@]1(OC)C3NC3CN21)OC` (some centres not stated), the results for the minimal effective dose at 1.6 mg/kg in the data set with B16 [5] and with P388 [4] were 0.4 mg/kg and less than 0.025 mg/kg, respectively. The figures for the T/C with P388 [3] and with B16 [6] were 269% and 216%, respectively.
Turning to `CO[C@@]12C(COC(N)=O)C3=C(C(=O)C(C)=C(OCCC#N)C3=O)N1CC1NC12` (some centres not stated), the figures for the T/C in the data set on B16 [7] and with P388 [8] were 141% and 200%, respectively. Also, the minimal effective dose at 1.2 mg/kg with B16 [9] worked out at 0.8 mg/kg.
`CO[C@@]12C(COC(N)=O)C3=C(C(=O)C(C)=C(OCCO)C3=O)N1CC1C2N1C` (some centres not stated): the minimal effective dose at 3.2 mg/kg with P388 [10] was determined as 0.05 mg/kg. Also, the T/C in the data set with P388 [1] is 222%. The same compound returned a logP in [2] of 0.67.
As to `C#CCOC1=C(C)C(=O)C2=C(C1=O)C(COC(N)=O)[C@@]1(OC)C3NC3CN21` (some centres not stated), the T/C came to 204% in the data set with B16 [11] and 150% in the data set on P388 [13]. Also, the minimal effective dose at 0.8 mg/kg in the data set on P388 [12] was less than 0.05 mg/kg. Further, the logP in [2] is 0.74.
As for `CO[C@@]12C(COC(N)=O)C3=C(C(=O)C(C)=C(OCCN4CCOCC4)C3=O)N1CC1NC12` (some centres not stated), the T/C in the data set with B16 [14] is recorded as 113%; in the data set on P388 [1] it was 256%. The minimal effective dose at 3.2 mg/kg with P388 [10] was less than 0.05 mg/kg. In data set [2], this compound came in with a logP of 0.49.
For `CO[C@@]12C(COC(N)=O)C3=C(C(=O)C(C)=C(OCCN(C)C)C3=O)N1CC1NC12` (some centres not stated), the minimal effective dose at 1.6 mg/kg in the data set on B16 [5] turned out to be 0.4 mg/kg. Moreover, the minimal effective dose at 3.2 mg/kg in the data set on P388 [10] is less than 0.025 mg/kg. Moreover, the results for the T/C with P388 [1] and in the data set with B16 [6] were 281% and 220%, respectively. Further, the logP in data set [2] was found to be 0.46.
As to `CO[C@@]12C(COC(N)=O)C3=C(C(=O)C(C)=C(OCC4COC(C)(C)O4)C3=O)N1CC1NC12` (some centres not stated), the T/C in the data set on B16 [11] is 198%; in the data set with B16 [17], 240%; with P388 [13], 178%; in the data set with B16 [18] it was 133% and 147% and 170%; with B16 [19], 221%. Besides, the minimal effective dose at 0.8 mg/kg in the data set with B16 [15] was 0.4 mg/kg; with P388 [20], less than 0.05 mg/kg. Also, the MED in the data set with B16 [16] was <0.3 mg/kg and 0.1 mg/kg. Further, in data set [2], the logP was found to be 0.82.
As for `CCOC1=C(C)C(=O)C2=C(C1=O)C(COC(N)=O)[C@@]1(OC)C3NC3CN21` (some centres not stated), the results for the T/C in the data set on P388 [3], with B16 [14] and in the data set on B16 [22] were 188%, 212% and 215%, respectively. In the data set on B16 [21], the minimal effective dose at 0.2 mg/kg was 0.1 mg/kg. Further, the minimal effective dose at 1.6 mg/kg in the data set on P388 [4] was less than 0.05 mg/kg. Besides, the logP in [2] was found to be 0.76. Besides, in the data set with B16 [23], the minimal effective dose at 0.4 mg/kg is less than 0.4 mg/kg.
As for `CO[C@@]12C(COC(N)=O)C3=C(C(=O)C(C)=C(OCC4CCCO4)C3=O)N1CC1NC12` (some centres not stated), the T/C is 212% and 198% with B16 [11] (0.8 mg/kg); 147% in the data set on B16 [24]; 239% in the data set on P388 [13]; 133% in the data set on B16 [18]. The minimal effective dose at 0.8 mg/kg was 0.2 mg/kg in the data set on B16 [15] and less than 0.05 mg/kg in the data set on P388 [12]. Also, in the data set with B16 [15], the MED is 0.2 mg/kg. The logP in [2] stood at 1.29.
For the compound `COC1=C(C)C(=O)C2=C(C1=O)[C@@H](COC(N)=O)[C@@]1(OC)[C@H]3N[C@H]3CN21` [MITOMYCIN A], the minimal effective dose at 3.2 mg/kg in the data set on P388 [10] was found to be 0.05 mg/kg. The minimal effective dose at 0.3 mg/kg in the data set with B16 [25] worked out at 0.05 mg/kg. Besides, the figures for the T/C in the data set on P388 [1] and with B16 [26] were 180% and 177%, respectively. Moreover, the logP in data set [2] turned out to be 0.26.
